Experimental data from PMC7525093, “Bis-Quinolinium Cyclophane Blockers of SK Potassium Channels Are Antagonists of M3 Muscarinic Acetylcholine Receptors” (Frontiers in Pharmacology, 2020).

How the values were obtained:
mouse trachea = assay: Isometric tracheal tension measurement (organ bath)
Protocol: Mice used in these studies were BALB/C mice from Jackson Labs. All animal procedures were reviewed and approved by the University of Texas Health Science Center at San Antonio Institutional Animal Care and Use Committee. For tracheal constriction studies, animals were deeply anesthetized with isoflurane and then sacrificed by cervical dislocation. Isometric tracheal contraction measurements were performed as previously described ([Semenov et al., 2012]). Trachea were removed and surrounding tissues dissected in ice-cold physiologic saline solution (PSS) consisting of 119 mM NaCl, 4.7 mM KCl, 2.0 mM CaCl2, 1.0 mM KH2PO4, 1.17 mM MgSO4, 18 mM NaHCO3, 0.026 mM EDTA, 11 mM glucose, and 12.5 mM sucrose. Trachea were cut below the pharynx and above the primary bronchus bifurcation. Two metal wires, attached to a force transducer and micrometer (Radnoti, LLC), were threaded into the lumen of the trachea. Trachea were placed into an oxygenated organ bath (95% O2, 5% CO2), at 37°C, pH 7.35 (after bubbling with 95% O2–5% CO2). Tracheal resting tension was readjusted to 1 gram over 1 h and then challenged with 67 mM potassium PSS with NaCl adjusted to 56.7 mM to maintain proper osmolarity (KPS). Trachea were challenged two or more times until reproducible contractile responses were achieved. All subsequent experimental drug responses were normalized to the KPS response. Bladder measurements were conducted in a similar manner as trachea with identical solutions. The bladder was excised and formed into a ring by cutting anterior and posterior portions before mounting on metal wires for force measurements. For the aorta preparation, the ascending thoracic aorta was excised and cut into 2–3 mm sections before mounting on wires for force measurements.

M5 muscarinic receptor = target: T1, M5 muscarinic receptor (Homo sapiens, UniProt P08912); assay: R-CEPIAer ER calcium assay, CHO cells transiently transfected with M5 receptor; type: cell-based
T1 construct: expressed in transfected cells; host or cells: CHO cells, transiently co-transfected with pCMV R-CEPIAer
T1 sequence (P08912 1-532): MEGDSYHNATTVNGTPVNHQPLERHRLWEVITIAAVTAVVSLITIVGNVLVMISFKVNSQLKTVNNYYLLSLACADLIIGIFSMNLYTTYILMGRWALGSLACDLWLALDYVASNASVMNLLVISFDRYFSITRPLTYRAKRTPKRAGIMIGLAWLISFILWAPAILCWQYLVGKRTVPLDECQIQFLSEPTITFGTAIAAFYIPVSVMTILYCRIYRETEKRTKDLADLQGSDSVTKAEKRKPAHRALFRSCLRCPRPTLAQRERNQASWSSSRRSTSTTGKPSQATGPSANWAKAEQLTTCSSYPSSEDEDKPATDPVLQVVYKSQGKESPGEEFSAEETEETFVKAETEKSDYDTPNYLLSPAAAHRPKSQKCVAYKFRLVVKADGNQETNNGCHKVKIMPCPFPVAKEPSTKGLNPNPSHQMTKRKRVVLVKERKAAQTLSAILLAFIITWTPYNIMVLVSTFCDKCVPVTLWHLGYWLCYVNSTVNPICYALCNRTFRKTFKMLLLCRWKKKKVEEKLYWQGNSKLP
Protocol: [Worded in the source for another target; used here, by the source, with some conditions changed.] (§1) The binding of antagonists to Gq-coupled receptors was determined by measuring IP3-mediated calcium depletion from the endoplasmic reticulum (ER). This was accomplished using CHO-K1 cells stably transfected with human M3 muscarinic acetylcholine receptor (CEM3000000, cDNA Resource Center, Bloomsburg University) and R-CEPIAer, a low affinity ER-targeted calcium indicator fluorescent protein ([Suzuki et al., 2014]). R-CEPIAer reporting of ER calcium concentration was assessed using 564 nm excitation light (>590 long-pass emission) at 20 second intervals on a Nikon swept-field confocal microscope using slit-scan mode, 2x2 Binning, and 100 millisecond frames. F/Fmax was fluorescence intensity normalized to maximal fluorescence intensity during the experiment. The response of cells to Gq-coupled receptor agonist were measured as the change in F/Fmax (ΔF/Fmax) from preagonist value to fluorescence minimum during agonist application (that occurs by IP3-mediated ER calcium depletion). […] Perfusion of each agonist application was for 2 min, while the antagonist overlapped and preceded the second agonist application by 3 min. […] IC50 was calculated by assaying fractional inhibition using a dose-response of antagonist concentrations (i.e. Figure 1D ). […]

histamine receptor H1 = target: T2, histamine receptor H1 (Homo sapiens, UniProt P35367); assay: R-CEPIAer ER calcium assay, CHO cells transfected with H1 receptor; type: cell-based; settings: data not shown
T2 construct: expressed in transfected cells; host or cells: CHO cells, transiently co-transfected with pCMV R-CEPIAer
Protocol: as §1

[1] = tested on: rat primary tracheal smooth muscle cells; assay: Cytosolic calcium imaging in rat tracheal smooth muscle cells; type: cell-based
Protocol: Rat trachea were isolated as described above, except that a guillotine was used for sacrifice instead of cervical dislocation. The dorsal muscle layer was removed from the hyaline cartilage rings and minced into ~1-mm fragments in Ca^2+-free HEPES-buffered Krebs solution (140 mM NaCl, 4.7 mM KCl, 1.13 mM MgCl2, 10 mM HEPES, 10 mM glucose, pH 7.3). The tracheal smooth muscle (TSM) fragments were digested with 2.5 U/ml papain (MP Biomedicals) with 1 mg/ml BSA fraction V and 1 mg/ml dithiothreitol at 37°C on a rocking platform (250 rotations/min) for 20 min. After washing once with the Ca^2+-free Krebs solution the TSM fragments were digested with 12.5 U/ml of type VII collagenase (Sigma Chemical) for 10 min on a rocking platform at 37°C, washed and centrifuged (750 G for two min.) three times in Ca^2+-free Krebs-BSA solution and gently triturated up to 5 min to disburse single tracheal myocytes. TSM cells were stored on ice in Ca^2+-free Krebs-BSA solution and used the same day.
TSM cells were placed on a coverslip in a 1 ml perfusion chamber on an inverted microscope and incubated with 20 μM Cal-520 AM dye (AAT Bioquest, Sunnyvale, California, USA) in 0.2% Pluronic F-127 and 1 mM probenecid in HBSS at room temperature for 30 min. The chamber was fitted with a top adaptor and coverslip (Warner Instruments, RC37WC) to establish a closed perfusion chamber. […]

T2 sequence (P35367 whole entry): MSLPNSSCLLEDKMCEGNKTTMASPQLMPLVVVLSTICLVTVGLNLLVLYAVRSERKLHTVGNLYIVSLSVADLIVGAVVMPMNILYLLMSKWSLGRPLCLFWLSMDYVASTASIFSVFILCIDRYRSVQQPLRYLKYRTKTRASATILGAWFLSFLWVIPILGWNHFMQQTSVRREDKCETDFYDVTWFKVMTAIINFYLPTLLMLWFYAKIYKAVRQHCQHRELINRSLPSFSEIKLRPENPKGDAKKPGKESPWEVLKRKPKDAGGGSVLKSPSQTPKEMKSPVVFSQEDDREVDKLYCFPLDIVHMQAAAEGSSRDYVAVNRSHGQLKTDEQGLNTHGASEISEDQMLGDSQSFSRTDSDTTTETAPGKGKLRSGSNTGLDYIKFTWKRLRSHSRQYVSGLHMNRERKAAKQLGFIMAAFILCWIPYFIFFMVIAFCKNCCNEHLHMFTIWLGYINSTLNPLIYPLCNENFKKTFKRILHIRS

SMILES: c1cc2cc(c1)C[n+]1ccc(c3ccccc31)NCc1ccc(cc1)CNc1cc[n+](c3ccccc13)C2 [UCL 1684, 6,12,19,20,25,26-Hexahydro-5,27:13,18:21,24-trietheno-11,7-metheno-7H-dibenzo [b,n] [1,5,12,16]tetraazacyclotricosine-5,13-diium dibromide]
- Relaxation of precontracted trachea (mouse trachea): near complete relaxation
- Relaxation response of trachea, single dose (mouse trachea; 3.5 μM, 0.5 μM carbachol): 95.4 ± 2.4
- IC50 (mouse trachea; Mus musculus, read-out: IC50, relaxation of carbachol-precontracted trachea): 430 nM
- Reduction of carbachol-evoked ASM contractions (mouse trachea; carbachol-evoked): > 90%
- Washout needed to restore tracheal responses to cholinergic agonists (mouse trachea; data not shown): at least an hour of washout
- IC50 (M5 muscarinic receptor): 520 nM
- Hill slope of inhibition curve, M5 receptor (M5 muscarinic receptor; 0.5 μM carbachol): 1.4 ± 0.17
- Fractional inhibition of H1 receptor response (histamine receptor H1): -0.008 ± 0.04
- Calcium response (integral) to second carbachol relative to first ([1]; 3.5 μM UCL 1684, 0.5 μM carbachol, rat TSMC): 0.42 ± 0.04
- activity at 3.5 µM ([1]; Rattus norvegicus, read-out: CCH-evoked cytosolic calcium, % of control): 42%
